Laboratory results taken from paper PMC8911630, “New Pharmacological Strategies against Pancreatic Adenocarcinoma: The Multifunctional Thiosemicarbazone FA4” (Molecules, 2022).
Read-outs that look alike come from different tables or passages of the source.

Tests used:
PANC-1 cell line [1] = assay: Cytotoxicity in PANC-1 cell line; format: cell-based, human
PDAC xenografts = tested on: PDAC xenografts; set-up: method as in PMID 34586588; details: cited from earlier work
PDAC-1 cells [2] = assay: Apoptosis assay (annexinV-FITC), PDAC-1; format: cell-based, human
Description: (§1) Previous studies reported that the modulation of σ2 receptor activity contributes to the initiation of the apoptotic process. Therefore, we evaluated the effect of FA4 on the induction of apoptosis in the PDAC primary cultures. To this aim, we measured the externalization of the plasma membrane phosphatidylserine, a reliable marker of cell apoptosis, which was quantified by the measurement of the fluorescence of annexin-V by spectrophotometric assay and microscopy. After 24 h of treatment with 10 μM FA4, a significant increase in the portion of apoptotic cells was observed compared to untreated control cells. The highest apoptotic index was measured in the PDAC-2 cells (17.6 ± 3.6, compared to 15.5 ± 4.9 in the PDAC-1 cells).
(§2) Cells were seeded in 96-well plates (5 × 10^3 cells/well), and after 24 h, the cells were fixed with 4% paraformaldehyde in PBS for 30 min, then washed twice with PBS and stained with annexinV-FITC in binding buffer (10 mM HEPES/NaOH pH 7.4, 140 mM NaCl, and 2.5 mM CaCl2) for 10 min in the dark at room temperature. Lastly, cells were washed with the assay binding buffer solution, and fluorescence was measured by using a multimode plate reader with excitation and emission filters at 485 nm and 535 nm, respectively, to determine the apoptotic index. […]

[3] = tested on: pancreatic ductal adenocarcinoma (PDAC) primary cell cultures; assay: Antiproliferative activity on PDAC primary cell cultures (both cultures together); format: cell-based; details: Homo sapiens; range over PDAC primary cell cultures; read-out: half maximal inhibitory concentration (IC50)
Text: A new sigma-2 (σ2) receptor ligand (FA4) was efficiently synthesized and evaluated for cytotoxic, proapoptotic, and antimigratory activity on pancreatic ductal adenocarcinoma (PDAC) primary cell cultures, which restrained the aggressive and chemoresistant behavior of PDAC. […] The cytotoxic activity was associated with induction of apoptosis, resulting in apoptotic indexes higher than those observed after exposure to a clinically relevant concentration of the gemcitabine, the first-line drug used against PDAC.

PDAC-1 cells [4] = assay: cells; details: Homo sapiens, 72 h, read-out: Cytotoxicity IC50 ± SD
Description: (§9) Human pancreatic adenocarcinoma primary cultures (PDAC1 and PDAC2) were cultured in RPMI + 10 % New Born Calf Serum + 1% Penicillin/ Streptomycin and maintained in standard conditions for <20 passages. Cells were routinely tested for Mycoplasma spp. and were free of contamination.
(§10) Cells were seeded in 96-well flat-bottom plates at a density of 3000/well, using both a control plate and an experimental plate. After 24 h, the control plate was fixed with cold 50% trichloroacetic acid, and the incubation with the compound of interest was performed in the experimental plate. After 72 h of incubation, the experimental plate was also fixed. Subsequently, both plates were washed and stained with the SRB solution, and after vigorous washing and drying, the bound dye was extracted from the cells with an alkaline solution. The absorption of SRB was measured spectrophotometrically at a wavelength of 490 nm and 540 nm. […] Thus, cell growth inhibition was calculated as the percentage versus vehicle-treated cells (“negative control”) OD (corrected for OD of the control plate before drug addiction). Finally, the half maximal inhibitory concentration (IC50) was calculated by nonlinear least squares curve fitting (GraphPad Prism 7, Intuitive Software for Science, San Diego, CA, USA), as described previously [33]. […]

[5] = tested on: normal fibroblast Hs27 cells; assay: Sulforhodamine B (SRB) assay, Hs27; format: cell-based, human; details: Hs27 cells vs PDAC tumor cells
Description: (§11) Cells were seeded in 96-well flat-bottom plates at a density of 3000/well, using both a control plate and an experimental plate. After 24 h, the control plate was fixed with cold 50% trichloroacetic acid, and the incubation with the compound of interest was performed in the experimental plate. After 72 h of incubation, the experimental plate was also fixed. Subsequently, both plates were washed and stained with the SRB solution, and after vigorous washing and drying, the bound dye was extracted from the cells with an alkaline solution. The absorption of SRB was measured spectrophotometrically at a wavelength of 490 nm and 540 nm. The intensity of the signal is proportional to the number of living cells and, therefore, a measure of their proliferation. Thus, cell growth inhibition was calculated as the percentage versus vehicle-treated cells (“negative control”) OD (corrected for OD of the control plate before drug addiction). Finally, the half maximal inhibitory concentration (IC50) was calculated by nonlinear least squares curve fitting (GraphPad Prism 7, Intuitive Software for Science, San Diego, CA, USA), as described previously [33]. The SRB assay was performed in technical and biological triplicates.

[6] = Sulforhodamine B (SRB) assay, Hs27; format: cell-based, human; details: human, normal skin fibroblast Hs27 cells; Hs27 nontransformed cells, SRB, 72 h; read-out: Cytotoxicity IC50 ± SD
Description: as §11

PANC-1 cell line [7] = tested on: PANC-1 cell line; set-up: method as in PMID 34586588; details: read-out: Cytotoxicity IC50 ± SD PANC-1; cited from earlier work
normal HPDE cells = assay: Sulforhodamine B (SRB) assay, HPDE; format: cell-based, human; details: HPDE cells vs PDAC tumor cells
Description: as §11

[8] = Sulforhodamine B (SRB) assay, HPDE; format: cell-based, human; details: human; HPDE nontransformed cells, SRB, 72 h; read-out: Cytotoxicity IC50 ± SD
Description: as §11

PDAC-2 cells [9] = assay: cells; details: Homo sapiens, PDAC-2, 72 h, read-out: Cytotoxicity IC50 ± SD
Description: as §9, §10

PDAC-2 cells [10] = assay: Apoptosis assay (annexinV-FITC), PDAC-2; format: cell-based, human
Description: as §1, §2

PDAC-2 cells [11] = assay: Scratch wound-healing migration assay, PDAC-2; format: cell-based, human; details: PDAC-2, FA4 10 µM, 24 h
Description: (§3) Cancer cell migration is a key factor contributing to the aggressiveness of PDAC. It is therefore important to find new compounds that can counteract or stop this process. To evaluate the effect of FA4 on cell migratory properties, a migration assay was performed by incubating cells for 24 h with FA4.
(§4) Cells were seeded into 96-well plates 72 h before the assay at a density of 5 × 10^4 /well and allowed to attach and to become confluent. Subsequently, a scratch was performed in every well with a 96-pin scratcher, allowing the formation of uniform scratches. Immediately after this passage, cells were cultured for 24 h in complete medium with the drug of interest for experimental wells or without any drug for the control wells. Pictures were taken with an optical microscope at different time points (0, 6, and 24 h) and analyzed with the Scratch Assay 6.2 software (Digital Cell Imaging Labs, Keerbergen, Belgium). The migration assay was performed in technical and biological triplicates, as reported previously.

PDAC-1 cells [12] = assay: Scratch wound-healing migration assay, PDAC-1; format: cell-based, human; details: PDAC-1, FA4 10 µM, 24 h
Description: as §3, §4

σ1 receptor = σ1 receptor (Cavia porcellus, UniProt Q60492); assay: σ1 receptor radioligand binding assay; details: mean of n ≥ 3 separate experiments in duplicate, read-out: Ki ± SD σ1
Description: (§5) The compounds underwent radioligand binding assays on σ1 and σ2 receptors, according to the previously adopted protocols.
(§6) σ1 and σ2 receptor binding were carried out following Matsumoto et al.. […] All the procedures for the binding assays were described previously by Abate and collaborators.

[13] = tested on: lung adenocarcinoma A549 cells; assay: Cytotoxicity in A549 cells; format: cell-based; details: Homo sapiens
Description: (§7) On the other hand, the data also confirmed the need for a strategy with a greater impact on pancreatic tumors. From this perspective, the multitarget FA4 appeared to be a promising candidate and was selected to be further investigated in the primary PDAC cell cultures of the present study.
(§8) Previous experiments were performed with human pancreas cancer cell lines PANC-1 (CRL-1469™), MiaPaCa2 (CRL-1420™), BxPC-3 (CRL-1687™), PANC-02.03 (CRL-2553™), AsPC-1 (CRL-1682™), human A549 lung cancer cells (CRM-CCL-185™), human MCF7 adenocarcinoma breast cells (HTB-22™), and human HepG2 hepatocarcinoma cells (HB-8065™), obtained from ATCC. PANC-1, MiaPaCa2, BxPC-3, PANC-02.03, AsPC-1, and MCF7cells were cultured in DMEM with heat inactivated 10% FBS, penicillin ([…]), and streptomycin ([…]). HepG2 cells were cultured in MEM supplemented with 10% (v/v) heat inactivated FPS, 1% (v/v) glutamine, 1% (v/v) penicillin, and streptomycin, 1% (v/v) NEAA. A549 cells were grown in HAM’S F12 supplemented with 10% heat inactivated FBS, 2 mM glutamine, 100 U mL^−1 penicillin, and 100 μg/mL streptomycin. All these cells were kept at 37 °C in a humidified incubator under an atmosphere of 5% CO2 in 75 cm^2 tissue culture flasks (Greiner Bio-One GmbH, Frickenhausen, Germany) and were harvested with trypsin-EDTA in their exponentially growing phase.

[14] = tested on: hepatocarcinoma HepG2 cells; assay: Cytotoxicity in HepG2 cells; format: cell-based; details: Homo sapiens
Description: as §7, §8

[15] = tested on: breast adenocarcinoma MCF7 cells; assay: Cytotoxicity in MCF7 cells; format: cell-based; details: Homo sapiens
Description: as §7, §8

σ2 receptor = biological target: T1, σ2 receptor (Rattus norvegicus, UniProt Q5U3Y7); assay: σ2 receptor radioligand binding assay
T1 sequence (Q5U3Y7 1-176): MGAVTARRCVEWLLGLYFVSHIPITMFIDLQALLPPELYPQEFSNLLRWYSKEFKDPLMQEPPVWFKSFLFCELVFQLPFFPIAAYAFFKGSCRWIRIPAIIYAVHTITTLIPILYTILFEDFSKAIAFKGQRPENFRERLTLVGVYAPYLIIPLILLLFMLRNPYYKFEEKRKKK
Description: as §5, §6

[16] = Homo sapiens, PANC-1, read-out: Cytotoxicity IC50 ± SD PANC-1

Chain of σ1 receptor (Q60492 whole entry): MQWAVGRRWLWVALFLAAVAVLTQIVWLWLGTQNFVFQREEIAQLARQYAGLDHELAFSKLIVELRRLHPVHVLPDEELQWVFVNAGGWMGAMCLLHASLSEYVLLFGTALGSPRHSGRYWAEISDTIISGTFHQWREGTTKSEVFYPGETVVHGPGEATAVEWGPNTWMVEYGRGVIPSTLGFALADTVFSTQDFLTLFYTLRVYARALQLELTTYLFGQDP

Compound: Fc1ccc(-n2cc(CCCCN3CCC4(CC3)OCc3ccccc34)c3ccccc32)cc1 [Siramesine]
- IC50 (PANC-1 cell line [1]; Homo sapiens, PANC-1 cell line, read-out: Cytotoxicity IC50 ± SD PANC-1): > 50 µM

Compound: Cc1ccccc1N=C(N)Nc1ccccc1C [DTG]
- IC50 (PANC-1 cell line [1]; PANC-1 cell line, read-out: Cytotoxicity IC50 ± SD PANC-1): > 50 µM

Compound: CC(C)=CCN1CC[C@]2(C)c3cc(O)ccc3C[C@H]1[C@H]2C [(+)-pentazocine]
- IC50 (PANC-1 cell line [1]; [16]): > 50 µM

Compound: CN(C)C(=S)N/N=C1\C(=O)N(CCCCN2CCC3(CC2)OCc2ccccc23)c2ccccc21 [FA4]
- safety in PDAC xenografts (PDAC xenografts): safe
- apoptotic index (PDAC-1 cells [2]; PDAC-1, 10 μM, 24 h, annexinV-FITC fold change compared to control cells): 15.5 ± 4.9
- percentages of apoptotic cells compared to gemcitabine at 10 μM (PDAC-1 cells [2]; PDAC-1, 24 h treatment): significantly higher
- IC50 [3]: 0.701 to 0.825 µM
- IC50 (PDAC-1 cells [4]): 0.825 ± 0.006 µM
- selectivity index (SI, IC50 non-tumor cells/IC50 tumor cells) [5]: 7
- IC50 at 72 h [6]: 5.55 ± 0.333 µM
- IC50 (PANC-1 cell line [7]): 3.01 ± 0.9 µM
- selectivity index (SI, IC50 non-tumor cells/IC50 tumor cells) (normal HPDE cells): 11
- IC50 at 72 h [8]: 8.07 ± 0.302 µM
- IC50 (PDAC-2 cells [9]): 0.701 ± 0.059 µM
- apoptotic index (PDAC-2 cells [10]; PDAC-2, 10 μM, 24 h, annexinV-FITC fold change compared to control cells): 17.6 ± 3.6
- percentages of apoptotic cells compared to gemcitabine at 10 μM (PDAC-2 cells [10]; PDAC-2, 24 h treatment): significantly higher
- migration rate (PDAC-2 cells [11]): significantly inhibit the migration rate
- migration rate (PDAC-1 cells [12]): significantly inhibit the migration rate

Compound: c1ccc2c(c1)COC21CCN(CCCCn2ccc3ccccc32)CC1 [MT8, 1’-(4-(1H-indol-1-yl)butyl)-3H-spiro[isobenzofuran-1,4’-piperidine]]
- Ki (σ1 receptor): 0.0273 ± 0.0026 µM
- cytotoxic potency relative to FA4 (PANC-1 cell line [1]): six-fold less potent than FA4
- IC50 (PANC-1 cell line [1]; [16]): 19.1 ± 1.3 µM
- IC50 [13]: 4.29 µM
- IC50 [14]: 3.2 µM
- IC50 [15]: 6.02 µM
- Ki (σ2 receptor): 0.00043 ± 0.0001 µM
